Publication PMC3749181, “Rapid Identification of Antifungal Compounds against Exserohilum rostratum Using High Throughput Drug Repurposing Screens” (PLoS ONE, 2013)
pIC50: −log10 of the molar value. “And” between values parts separate entries of the source, which are not always exact repeats. Identical values can stand only once. Like-named read-outs stand apart in the source and are kept apart here.

How the values were obtained:
[1] = system: E. rostratum hyphal fragments; assay: hyphal fragment fungicidal ATP content assay (PBS, 1536-well); format: cell-based, Exserohilum rostratum; conditions: for pIC50 / Emax: Exserohilum rostratum
Procedure, shortened: (§1)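 Fungicidal screen: OD-normalised hyphal fragments (15,000/well) in PBS, or conidia (250/well) in RPMI, exposed 24 h at 30°C to compound at 46 µM. Viability read as ATP luminescence (ATPLite), normalised to DMSO (100%) and 46 µM amphotericin B (0%).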

E. rostratum conidia = assay: conidia growth inhibition ATP content assay (RPMI, 1536-well); format: cell-based, Exserohilum rostratum
Procedure, shortened: as §1

SH-SY5Y cells = assay: SH-SY5Y cytotoxicity counter-screen (ATP content assay); format: cell-based, Human; conditions: for SH-SY5Y % Max. Resp.: Table 2, SH-SY5Y, inact. = no significant activity at 46 µM; for SH-SY5Y % M. Res. / SH-SY5Y IC50: Table S1; for SH-SY5Y % M. Res.: Inact. = no significant activity at 46 µM; for SH-SY5Y IC50: Inact. = no significant activity at the highest compound concentration (46 µM); for cytotoxicity in SH-SY5Y mammalian cells: concentration up to 46 µM
Procedure, shortened: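 SH-SY5Y human neuroblastoma cells grown in DMEM/F-12 with 10% FBS at 37 °C, 5% CO2. Viability counter-screen measured cellular ATP by luciferase luminescence (ATPLite) in 1536-well format.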

[2] = system: E. rostratum hyphal fragments; assay: colony formation assay of hyphal fragments; format: cell-based, Exserohilum rostratum; conditions: 2 times respective IC50, 37°C, 24 h; p<0.01
Procedure: 10 µl of hyphal suspension (processed as described above) was transferred to 1.7 mL microfuge tubes, each containing 28 nM amphotericin B, 242 nM posaconazole, or 10% DMSO in 1 ml PBS. Tubes containing hyphae and drug were incubated at 37°C in a shaking incubator for 24 h, then 200 µl of the hyphae drug suspension was spread on Yeast Extract Peptone Dextrose (YPD) plates for 24 h at 30°C and the number of colony forming units were scored. The experiments were performed in triplicate.
Mixtures were cultured at 37°C in a shaking incubator for 24 h, then the hyphal suspensions were inoculated on Yeast Extract Peptone Dextrose (YPD) plates that were incubated for 1 day. The number of colonies on each YPD plate was counted.

E. rostratum [3] = system: E. rostratum; design: method as in earlier work; conditions: filamentous fungi M38-A2, this isolate; cited from earlier work
[4] = design: method as in PMID 12445558; conditions: 8 hours after intravenous (iv) administration of 20 mg/kg; cited from earlier work
E. rostratum [5] = assay: drug repurposing screen against E. rostratum; format: cell-based, Exserohilum rostratum; conditions: in our experiments
Source text: The library of pharmacologically active compounds (LOPAC) consists of 1280 small molecules with characterized biological activities. The LOPAC library (Sigma-Aldrich) has been extensively used for HTS assay validations, [18]. The NIH Chemical Genomics Center Pharmaceutical (NPC) collection was constructed in-house through a combined effort of compound purchasing and custom synthesis and recently expanded to 4096 compounds. In this drug libarary, 52% of which are drugs approved for human or animal use by the United States Food and Drug Administration (FDA), 22% are drugs approved in Europe, Canada, or Japan, and the remaining 25% are compounds that have entered clinical trials or are research compounds commonly used in biomedical research. […] 2.5 µl/well PBS was dispensed into 1536-well plates using a Multidrop-Combi dispenser. Compound in DMSO solution was transferred in a volume of 23 nl/well using a NX-TR pintool station (WAKO Scientific Solutions, San Diego, CA). This additional PBS step for compound addition was designed to prevent the potential fungal contamination of compound libraries. The hyphal fragments in PBS were then added at 2.5 µl/well for a final seeding density of 15,000 hyphal fragments/well using the Multidrop-Combi dispenser. The final compound concentration was 46 µM in the primary screen. […]

[6] = Table 2, 46 µM Amphotericin B = 100%, inact. = no significant activity in the primary screen, read-out: Hyphae % Max. Resp.
[7] = Table 2, 24 h, inact. = no significant activity in the primary screen, read-out: Hyphae IC50
[8] = Table S1, 46 µM Amphotericin B = 100%, Inact. = no significant activity in the primary screen, read-out: Hyphae % M. Res.
[9] = Exserohilum rostratum, 24 h, Table 2, 24 h, inact. = no significant activity at the highest compound concentration (46 µM), read-out: Conidia IC50
[10] = Exserohilum rostratum, Table 2, 46 µM Amphotericin B = 100%, inact. = no significant activity at 46 µM, read-out: Conidia % Max. Resp.
[11] = Exserohilum rostratum, Table S1, 46 µM Amphotericin B = 100%, Inact. = no significant activity at 46 µM, read-out: Conidia % M. Res.
[12] = Figure 5, read-out: IC50 Hyphae
[13] = Exserohilum rostratum, Figure 5, read-out: IC50 Conidia

Row | Molecule | Emax [1, 6] | pIC50 [1, 7] | pIC50 (E. rostratum conidia; [9]) | Emax (E. rostratum conidia; [10]) | SH-SY5Y % Max. Resp. (SH-SY5Y cells; 46 µM Amphotericin B = 100%) | SH-SY5Y % Max. Resp. (SH-SY5Y cells) | hyphae-derived colony forming units (CFU) compared to DMSO control [2] | pIC50 [1, 12] | pIC50 (E. rostratum conidia; [13]) | cytotoxicity in SH-SY5Y mammalian cells (SH-SY5Y cells) | other results
1 | C[C@@H]1[C@H](O)[C@@H](C)/C=C/C=C/C=C/C=C/C=C/C=C/C=C/[C@H](O[C@@H]2O[C@H](C)[C@@H](O)[C@H](N)[C@@H]2O)C[C@@H]2O[C@](O)(C[C@@H](O)C[C@@H](O)[C@H](O)CC[C@@H](O)C[C@@H](O)CC(=O)O[C@H]1C)C[C@H](O)[C@H]2C(=O)O [Amphotericin B] | 84% | 7.85 | 7.92 | 104% | inact. | inact. | significantly reduced | – | – | – | pIC50 ([1]; 15000 fragments/well, read-out: hyphae IC50): 7.91; Emax [1, 8]: 84%; pIC50 (E. rostratum conidia; 250 conidia/well, read-out: conidia IC50): 8.01; pIC50 (E. rostratum conidia; Exserohilum rostratum, Table S1, Inact. = no significant activity at the highest compound concentration (46 µM), read-out: Conidia IC50): 6.09; pIC50 (E. rostratum conidia; Exserohilum rostratum, 250 conidia/well, read-out: conidia IC50): 8.03; Emax (E. rostratum conidia; [11]): 104%; SH-SY5Y % M. Res. (SH-SY5Y cells; 46 µM Amphotericin B = 100%): Inact.; SH-SY5Y IC50 (SH-SY5Y cells): Inact.; value determined from the microdilution method (E. rostratum [3]): 60 nM
2 | O=c1[nH]c(=O)n([C@H]2C[C@H](O)[C@@H](CO)O2)cc1F [Floxuridine] | 77% | 6.07 | 6.54 | 29% | inact. | inact. | significantly reduced | – | – | – | brain concentrations [4]: above 600 nM
3 | CCC(C)n1ncn(-c2ccc(N3CCN(c4ccc(OCC5COC(Cn6cncn6)(c6ccc(Cl)cc6Cl)O5)cc4)CC3)cc2)c1=O (centres unmarked) [Itraconazole] | 80% | 5.66 | 5.91 | 100% | inact. | inact. | significantly reduced | 5.71 | 5.90 | no significant cytotoxicity | –
4 | N#C/C(=C1/SCC(c2ccccc2Cl)S1)n1ccnc1 (centres unmarked) [Lanoconazole] | 65% | 6.69 | 6.42 | 103% | inact. | inact. | significantly reduced | 6.34 | 6.09 | no significant cytotoxicity | –
5 | N#C/C(=C1/SC[C@@H](c2ccc(Cl)cc2Cl)S1)n1ccnc1 [Luliconazole] | 82% | 5.19 | 5.36 | 100% | inact. | inact. | significantly reduced | – | – | – | Emax [1, 8]: 82%; Emax (E. rostratum conidia; [11]): 100%; SH-SY5Y % M. Res. (SH-SY5Y cells; 46 µM Amphotericin B = 100%): Inact.; SH-SY5Y IC50 (SH-SY5Y cells): Inact.
6 | CC[C@@H]([C@H](C)O)n1ncn(-c2ccc(N3CCN(c4ccc(OC[C@@H]5CO[C@@](Cn6cncn6)(c6ccc(F)cc6F)C5)cc4)CC3)cc2)c1=O [Posaconazole] | 78% | 6.92 | 7.01 | 106% | inact. | inact. | significantly reduced | 6.79 | 7.10 | no significant cytotoxicity | value determined from the microdilution method (E. rostratum [3]): 0.25 µg/ml and 360 nM
7 | C=CC[C@@H]1/C=C(\C)C[C@H](C)C[C@H](OC)[C@H]2O[C@@](O)(C(=O)C(=O)N3CCCC[C@H]3C(=O)O[C@H](/C(C)=C/[C@@H]3CC[C@@H](O)[C@H](OC)C3)[C@H](C)[C@@H](O)CC1=O)[C@H](C)C[C@@H]2OC [Tacrolimus] | 83% | 7.49 | 7.62 | 101% | inact. | inact. | significantly reduced | 7.51 | 7.44 | no significant cytotoxicity | –
8 | C[C@@H](c1ncncc1F)[C@](O)(Cn1cncn1)c1ccc(F)cc1F [Voriconazole] | 94% | 5.59 | 5.54 | 101% | inact. | inact. | significantly reduced | 5.55 | 5.43 | no significant cytotoxicity | pIC50 ([1]; read-out: hyphae IC50): 5.58; pIC50 (E. rostratum conidia; Exserohilum rostratum, read-out: conidia IC50): 5.54; value determined from the microdilution method (E. rostratum [3]): 2 µg/ml and 5.7 µM
9 | CCCSc1ccc2nc(NC(=O)OC)[nH]c2c1 [albendazole] | – | – | – | – | – | – | – | – | – | – | activity against E. rostratum (E. rostratum [5]): not active
10 | Mepartricin | – | – | – | – | – | – | – | – | – | – | Hyphae % M. Res. ([1]; Table S1, 46 µM Amphotericin B = 100%, Inact. = no significant activity in the primary screen): Inact.; Hyphae IC50 ([1]; Table S1, Inact. = no significant activity in the primary screen): Inact.; Conidia % M. Res. (E. rostratum conidia; Table S1, 46 µM Amphotericin B = 100%, Inact. = no significant activity at 46 µM): 80%; pIC50 (SH-SY5Y cells): 4.43; SH-SY5Y % M. Res. (SH-SY5Y cells; 46 µM Amphotericin B = 100%): 38%
11 | Phenylmercuric borate | – | – | – | – | 99% | 0.417% | – | – | – | – | Hyphae % Max. Resp. ([1]; Table 2, 46 µM Amphotericin B = 100%, inact. = no significant activity in the primary screen): inact.; Hyphae IC50 ([1]; Table 2, 24 h, inact. = no significant activity in the primary screen): inact.; Conidia % Max. Resp. (E. rostratum conidia; Table 2, 46 µM Amphotericin B = 100%, inact. = no significant activity at 46 µM): 103%; pIC50 (E. rostratum conidia; Table 2, 24 h, inact. = no significant activity at the highest compound concentration (46 µM), read-out: Conidia IC50): 6.83
